Source: PubChem BioAssay (NCI)
Several values for one entry are separate records, joined by “and”; a condition that tells them apart may be missing. Equal entries are not always repeated.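 Five compound concentrations were applied to cells in 96-well plates for 48 hours; endpoints were derived by simple linear interpolation of the resulting dose-response curve. Here, GI50 denotes the concentration required for 50% inhibition of growth. Definition used: TGI = concentration required for complete inhibition of growth.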

Legend:
Assay in all cases: DTP human tumour cell line panel, 48 h
HT29 colon = test system: HT29 colon
MDA-MB-435 = test system: MDA-MB-435
NCI-H23 lung = test system: NCI-H23 lung
OVCAR-3 ovarian = test system: OVCAR-3 ovarian
SF-539 CNS = test system: SF-539 CNS
SK-MEL-2 melanoma = test system: SK-MEL-2 melanoma
SNB-19 CNS = test system: SNB-19 CNS
UACC-257 melanoma = test system: UACC-257 melanoma
UACC-62 melanoma = test system: UACC-62 melanoma
UO-31 renal = test system: UO-31 renal

Row | Structure (SMILES) | GI50 (HT29 colon) [µM] | TGI (HT29 colon) [µM] | GI50 (MDA-MB-435) [µM] | TGI (MDA-MB-435) [µM] | GI50 (NCI-H23 lung) [µM] | TGI (NCI-H23 lung) | GI50 (OVCAR-3 ovarian) [µM] | TGI (OVCAR-3 ovarian) | GI50 (SF-539 CNS) [µM] | TGI (SF-539 CNS) | GI50 (SK-MEL-2 melanoma) | TGI (SK-MEL-2 melanoma) | GI50 (SNB-19 CNS) [µM] | TGI (SNB-19 CNS) | GI50 (UACC-257 melanoma) | TGI (UACC-257 melanoma) | GI50 (UACC-62 melanoma) [µM] | TGI (UACC-62 melanoma) | GI50 (UO-31 renal) | TGI (UO-31 renal)
1 | CCOCC1(COCC)CCC(c2[nH]ncc2CN(C)CCNC)CC1 | 33.3 | > 100 | > 100 | > 100 | > 100 | > 100 µM | > 100 | > 100 µM | > 100 | > 100 µM | > 100 µM | > 100 µM | > 100 | > 100 µM | > 100 µM | > 100 µM | > 100 | > 100 µM | > 100 µM | > 100 µM
2 | CC1(C)CCC(Sc2ccccc2)O1 (stereo unspecified) |  |  |  |  |  | > 100 µM |  | > 100 µM |  | > 100 µM |  | > 100 µM |  | > 100 µM |  | > 100 µM |  | > 100 µM |  | > 100 µM
3 | CN=C(N)c1ccc(N=C(N)c2ccc(-c3ccc(C(N)=Nc4ccc(C(N)=NC)cc4)cc3)cc2)cc1 | 62.8 | > 100 | 59.2 | > 100 | > 100 | > 100 µM | > 100 | > 100 µM | > 100 | > 100 µM | 35.1 µM | > 100 µM | > 100 | > 100 µM | > 100 µM | > 100 µM | 30.5 | > 100 µM | > 100 µM | > 100 µM
4 | Cc1ccc(NC(=O)CCCC(=O)CC(=O)c2ccc(Br)cc2)cc1 |  | > 100 |  |  |  | > 100 µM |  | > 100 µM |  | > 100 µM |  | > 100 µM |  | > 100 µM |  | > 100 µM |  | > 100 µM |  | > 100 µM
5 | CC(=O)OCC1OC(n2c(=S)n(-c3ccc([N+](=O)[O-])cc3)c(=O)c3ccccc32)C(OC(C)=O)C(OC(C)=O)C1OC(C)=O (stereo unspecified) |  | > 100 |  | > 100 |  | > 83.2 µM and 46.4 µM | 20 | 47.5 µM and 49.8 µM |  | 36 µM and 29.7 µM | 12 µM and 22.5 µM | 17.4 µM and 58.8 µM | 24.4 | 47.5 µM and 69.4 µM | 13 µM and 28.3 µM | 38.1 µM and 97.3 µM | 17.6 | 34 µM and 40.7 µM | 12 µM and 23.2 µM | > 57.5 µM and 60.1 µM
6 | CC(C)=CCc1cc2c(cc1O)C1=C(C(=O)C3=C(C1=O)S(=O)(=O)CCN3)C(C=C(C)C)O2 (stereo unspecified) | 0.634 | 2.22 | 0.061 | 0.227 | 0.7 | 4.01 µM | 0.403 | 1.37 µM | 1.96 | 4.02 µM | 1.44 µM | 5.29 µM | 0.651 | 2.64 µM | 0.482 µM | 1.5 µM | 0.419 | 1.21 µM | 1.82 µM | 4.59 µM
7 | COc1cccc(/C=C/C(=O)c2ccc3cc(OC)ccc3c2)c1 |  |  | 7.38 | 19 | 11.6 | 21 µM | 9.67 | 22.8 µM | 7.95 | 16.8 µM | 48.3 µM | > 50 µM | 14 | 47.3 µM | > 50 µM | > 50 µM | 8.35 | 21.9 µM | 9.25 µM | 19 µM
8 | COC(=O)CCSC(=O)Nc1ccc(N=Nc2ccccc2)cc1 |  | > 100 |  |  |  | 92 µM |  | 74.9 µM |  | > 100 µM |  |  |  | > 100 µM |  | > 100 µM |  | > 100 µM |  | > 100 µM
9 | Cc1ccc(C(=O)CC2(O)C(=O)Nc3c(C)cc(Cl)cc32)cc1 (stereo unspecified) |  | > 100 |  |  |  | > 100 µM |  | > 100 µM |  |  |  | > 100 µM |  | > 100 µM |  | > 100 µM |  |  |  | > 100 µM
10 | Cn1c(CBr)nc2c1C(=O)c1nc(CBr)[nH]c(=O)c1C2=O |  | > 100 |  |  |  | > 100 µM |  |  |  | > 100 µM |  |  |  |  |  |  |  | > 100 µM |  | > 100 µM
11 | COc1cc[c]([Sn]([c]2ccc(OC)cc2)([c]2ccc(OC)cc2)[c]2ccc(OC)cc2)cc1 | 20.3 | > 100 |  |  | 23.3 | > 100 µM | 12.5 | 33.7 µM | 16.8 | 48.6 µM | 28.2 µM | > 100 µM | 28.5 | > 100 µM |  |  | 17.9 | 69.3 µM | 14.1 µM | 38 µM
12 | CCCNC(=O)Nc1c([N+](=O)[O-])cc(C(F)(F)F)cc1[N+](=O)[O-] |  | > 100 |  |  |  | > 100 µM |  | 61.2 µM |  | > 100 µM |  | > 100 µM |  | > 100 µM |  | > 100 µM |  | > 100 µM |  | > 100 µM
13 | Cc1ccc(CNc2ccc(Br)cc2)cc1 |  | 93.4 |  | > 100 |  | > 100 µM |  | > 100 µM |  | > 100 µM |  |  |  | > 100 µM |  | > 100 µM |  | > 100 µM |  | 49.2 µM
14 | Nc1nnc2c(-c3ccccc3)[nH]nc2n1 |  | > 100 |  |  |  | > 100 µM |  | > 100 µM |  | > 100 µM |  | > 100 µM |  | > 100 µM |  | > 100 µM |  |  |  | > 100 µM
15 | N#CCCn1[nH]c(=O)c(Cl)c(Cl)c1=O |  | 24.2 |  |  |  | 29.3 µM |  | 26.7 µM |  | 51.1 µM |  | 29.6 µM |  | 29 µM |  | 37.7 µM |  |  |  | 34.7 µM
16 | NC(=O)c1ccc2c(c1)-c1nc-2nc2[n-]c(nc3nc(nc4[n-]c(n1)c1ccc(C(N)=O)cc41)-c1ccc(C(N)=O)cc1-3)c1ccc(C(N)=O)cc21.[Co+2] | > 50 | > 50 |  |  | > 50 | > 50 µM | > 50 | > 50 µM | 12.7 | 33.5 µM | > 50 µM | > 50 µM | > 50 | > 50 µM | > 50 µM | > 50 µM | > 50 | > 50 µM |  | 
17 | CN(C)CCNC(=O)c1cccc2c1nc(-c1ccc(F)cc1)c1ccccc12 |  | 15.1 |  |  |  | 18.6 µM |  | 18.7 µM |  | 13.8 µM |  | 22.3 µM |  | 20.2 µM |  | 11.2 µM |  | 14.8 µM |  | 4.51 µM
